In patent US10280146B2, “Pyrimidone compounds used as Lp-PLA2 inhibitors and pharmaceutical compositions thereof” (Shanghai Institute of Materia Medica, Chinese Academy of …, priority 2014, dated 2019):

Tests used:
[1] = tested on: Lp-PLA2 (rat serum as the source of enzyme); assay: In vitro inhibitory activity on Lp-PLA2, rat serum as the source of enzyme (2-thio-PAF/DTNB); format: biochemical
Protocol: (§1) 0.1M Tris-HCl, 1 mM EGTA, PH 7.2
(§2) Anhydrous ethanol was used as solvent to make a 25 mg/ml mother liquor. The solution was aliquoted, stored at −80° C. and diluted 900 times before use (about 50 μM of concentration)
(§3) 3) DTNB (5,5′-dithio-bis-(2-nitrobenzoic acid), Sigma, Lot D8130)
(§4) The solution was prepared just before use.
(§5) 4) Compound was dissolved in DMSO to a suitable concentration.
(§6) Lp-PLA2 activity was determined by using 2-thio-PAF as substrate. The thiol group produced upon the hydrolysis of 2-thio-PAF can react with DTNB to generate a yellow substance. The optical density at 414 nm can be detected to reflect Lp-PLA2 activity.
1.3 Determination of the Inhibitory Activity of the Compounds on Lp-PLA2 (Rat Serum as the Source of Enzyme (In Vitro)
1) The corresponding reagents were added according to Table 5 and mixed uniformly by shaking.
(§7) 2) 10 μL of DTNB was added to each well.
(§8) 3) 150 μL of 2-thio-PAF was added to each well and shaken for 15 s on a microplate reader to mix the liquid in the well uniformly.

[2] = In vitro assay of S9 metabolic stability, human S9; format: in vitro ADME; settings: for half-life at 0.1 μM: human, S9 fraction, pH 7.4
Protocol: (§9) 3.1.1 The Preparation of Tris/HCl(0.1 M, pH 7.4) Buffer
(§10) 12.12 g of TRIS (tris-hydroxymethyl aminomethane) was weighed, dissolved in 800 mL of water, and adjusted to pH 7.4 with HCl (2 M), and then the volume was adjusted to 1000 mL with water.
(§11) 3.1.2 The preparation of MgCl2
(§12) MgCl2 (100 mM) solution was prepared with 0.1 M Tris/HCl buffer, aliquoted and stored at −20° C. The incubation concentration of MgCl2 was 5.0 mM.
(§13) 3.1.3 The Preparation of NADPH
(§14) NADPH (10 mM) solution was prepared with 0.1 M Tris/HCl buffer, aliquoted and stored at −20° C. The incubation concentration of NADPH was 1.0 mM.
(§15) 3.1.4 The Preparation of S9
(§16) Human S9 (purchased from Reid Liver Disease Research (Shanghai) Co., Ltd.) was diluted 10 times with 0.1 M Tris/HCl and rat S9 (purchased from Reid Liver Disease Research (Shanghai) Co., Ltd.) was diluted 5 times with 0.1 M Tris/HCl, so that the incubation concentrations of human and rat S9 were equivalent to the incubation concentrations of the liver microsomes in the corresponding species (both incubation concentrations of liver microsomes in human and rats are 0.33 mg/mL).
(§17) 3.1.5 The Preparation of the Compounds to be Tested
The compound was dissolved in DMSO to obtain a stock solution at a concentration of 10 mM. The stock solution was diluted to 1 mM with DMSO and then diluted with 0.1% BSA-water to obtain a working solution at a concentration of 2 μM. In the incubation system, the working solution of 2 μM was diluted 20 times to a final concentration of 0.1 μM. The concentration of DMSO in the incubation system was ≤0.01%.
3.1.6 The Preparation of the Positive Control Compound
2 mM VIVID stock solution (purchased from Shanghai Beili Biotechnology Co., Ltd.) was diluted 50 times with the 2 μM working solution for the compounds to be tested. In the incubation system, the mixed working solution of VIVID and the compounds to be tested were diluted 20 times
S9 was incubated in a 96-well plate and each incubation system was 450 μL. […]

[3] = In vitro assay of S9 metabolic stability, rat S9; format: in vitro ADME; settings: S9 fraction, pH 7.4; rat S9, NADPH addition, 0.1 μM compound, 37° C.
Protocol: as §9, §10, §11, §12, §13, §14, §15, §16, §17
The compound was dissolved in DMSO to obtain a stock solution at a concentration of 10 mM. The stock solution was diluted to 1 mM with DMSO and then diluted with 0.1% BSA-water to obtain a working solution at a concentration of 2 μM. […]

[4] = target: T1, Lp-PLA2 (rabbit serum as the source of enzyme) (Oryctolagus cuniculus, UniProt G1SE06); assay: In vitro inhibitory activity on Lp-PLA2, rabbit serum as the source of enzyme (2-thio-PAF/DTNB); format: biochemical; settings: read-out: Inhibitory ratio, % on Lp-PLA2 (rabbit serum as the source of enzyme)
T1 construct: Rabbit Serum as the Source of Enzyme; from tissue; host or cells: rabbit serum
T1 sequence (G1SE06 22-423): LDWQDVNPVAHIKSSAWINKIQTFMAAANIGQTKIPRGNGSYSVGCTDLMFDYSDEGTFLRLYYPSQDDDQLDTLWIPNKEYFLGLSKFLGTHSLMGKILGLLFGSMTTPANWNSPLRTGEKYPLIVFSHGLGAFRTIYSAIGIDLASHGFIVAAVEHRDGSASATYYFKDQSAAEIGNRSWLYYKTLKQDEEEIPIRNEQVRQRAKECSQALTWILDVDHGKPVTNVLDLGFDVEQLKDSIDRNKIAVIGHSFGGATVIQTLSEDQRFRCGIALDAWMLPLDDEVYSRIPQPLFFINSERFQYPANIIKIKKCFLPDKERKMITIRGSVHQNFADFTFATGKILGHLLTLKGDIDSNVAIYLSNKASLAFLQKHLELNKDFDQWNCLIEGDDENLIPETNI
Protocol: as §1, §2, §3, §4, §5, §6
1.1 Determination of the Inhibitory Activity of the Compounds on Lp-PLA2 (Rabbit Serum as the Source of Enzyme) (In Vitro)
1) The corresponding reagents were added according to Table 1 and mixed uniformly by shaking.
as §7, §8

[5] = target: T2, Lp-PLA2 (human recombinant enzyme as the source of enzyme) (Homo sapiens, UniProt Q13093); assay: In vitro inhibitory activity on Lp-PLA2, human recombinant enzyme (2-thio-PAF/DTNB); format: biochemical; settings: read-out: inhibitory ratio, % on Lp-PLA2 (human recombinant enzyme as the source of enzyme)
T2 sequence (Q13093 22-441): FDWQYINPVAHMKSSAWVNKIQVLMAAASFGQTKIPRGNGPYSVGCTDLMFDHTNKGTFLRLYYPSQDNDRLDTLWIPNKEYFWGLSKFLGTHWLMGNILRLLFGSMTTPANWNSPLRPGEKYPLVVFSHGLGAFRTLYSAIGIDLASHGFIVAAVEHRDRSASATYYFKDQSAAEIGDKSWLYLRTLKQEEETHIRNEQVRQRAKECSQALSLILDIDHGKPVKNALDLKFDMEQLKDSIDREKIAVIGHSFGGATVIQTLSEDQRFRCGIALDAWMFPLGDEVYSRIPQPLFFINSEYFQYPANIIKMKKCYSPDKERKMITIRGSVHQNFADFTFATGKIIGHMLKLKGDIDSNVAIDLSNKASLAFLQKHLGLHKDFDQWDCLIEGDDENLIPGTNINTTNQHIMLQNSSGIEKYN
Protocol: as §1, §2, §3, §4, §5, §6
1.2 Determination of the Inhibitory Activity of the Compounds on Lp-PLA2 (Human Recombinant Enzyme as the Source of Enzyme) (In Vitro)
1) The corresponding reagents were added according to Table 3 and mixed uniformly by shaking.
as §7, §8

[6] = tested on: Lp-PLA2 in serum of SD rats; assay: In vivo inhibition assay of Lp-PLA2 activity in SD rats, single administration; set-up: species or system rat; settings: 50 mg/kg oral, serum 1-24 h
Protocol: Each group had 5 SD rats and 50 mg/kg test agents was administrated orally to the rats. […] Blood was collected from the orbits of the rats at 0 h before administration and at 1 h, 3 h, 5 h, 7 h and 24 h after administration and placed at room temperature for 30 minutes before centrifugation. Serum was collected and the Lp-PLA2 activity in serum was measured.

[7] = 10 nM compound, — = no inhibitory activity

Row | inhibitory ratio, % on Lp-PLA2 (rat serum as the source of enzyme) [1, 7] [%] | inhibitory ratio, % on Lp-PLA2 (rat serum as the source of enzyme) ([1]; 100 nM compound) [%] | half-life at 0.1 μM [2] [h] | metabolism stability (in words) ([2]; statement covers human and rat S9) | half-life at 0.1 μM [3] [h] | inhibition at 0.01 µM [4, 7] [%] | inhibition at 0.1 µM ([4]; 100 nM compound) [%] | inhibition at 0.01 µM ([5]; 10 nM compound) [%] | inhibition at 0.1 µM ([5]; 100 nM compound) [%] | Structure (SMILES) | activity of Lp-PLA2 in serum of the SD rats after a single administration [6]
1 | 27.65 | 82.48 | > 1 | superior metabolism stability | 195 | 33.2 | 65.4 | 82.8 | 90.1 | Cn1cc(-c2cc(OCc3cc(F)c(Oc4ccc(Cl)c(C(F)(F)F)c4)c(F)c3)nc(=O)n2C)cn1 [Example 21, 4-((4-(4-chloro-3-(trifluoromethyl)phenoxy)-3,5-difluorobenzyl)oxy)-1-methyl-6-(1-methyl-1H-pyrazolyl-4)pyrimidin-2(1H)-one] | –
2 | – | – | 7.08 | – | 2.68 | – | – | – | – | COc1cc(OCc2cc(F)c(Oc3ccc(Cl)c(C(F)(F)F)c3)c(F)c2)nc(=O)n1C [Example 65, 4-((4-(4-chloro-3-(trifluoromethyl)phenoxy)-3,5-difluorobenzyl)oxy)-6-methoxy-1-methylpyrimidin-2(1H)-one] | –
3 | – | – | – | – | – | – | – | – | – | COc1cc(OCc2ccc(Oc3ccc(Cl)c(C(F)(F)F)c3)c(F)c2)nc(=O)n1C [Example 66, 4-((4-(4-chloro-3-(trifluoromethyl)phenoxy)-3-fluorobenzyl)oxy)-6-methoxy-1-methylpyrimidin-2(1H)-one] | comparable to darapladib
